The assay concerns Lymphoma 4 ip in BDF1 mice, median survival. The assay is described as follows: NCI In Vivo Anticancer Drug Screen. Data for tumor model Lymphoma 4 (intraperitoneal) in B6D2F1 (BDF1) mice. As to conditions: endpoint: median survival time, schedule: Q01DX010 (ip), higher = longer survival. How it is done: The antitumor activity of compounds was measured in mice bearing transplantable tumors. Survival or tumor size were measured and the results are expressed as the measurement made in the treated group (T) divided by the measurement made in the vehicle treated control group (C). The tumor model used in this assay is Lymphoma 4 (intraperitoneal) in B6D2F1 (BDF1) mice

Setting [1] is: dose: 25.0 mg/kg/injection, vehicle: saline.
Where [2] appears, read: dose: 50.0 mg/kg/injection, vehicle: saline.
Setting [3] is: dose: 200.0 mg/kg/injection, vehicle: saline.
Where [4] appears, read: dose: 4.0 mg/kg/injection, vehicle: saline.
[5] abbreviates: dose: 8.0 mg/kg/injection, vehicle: saline.
The mark [6] stands for this setting: dose: 16.0 mg/kg/injection, vehicle: saline.
Where [7] appears, read: dose: 20.0 mg/kg/injection, vehicle: saline.
The mark [8] stands for this setting: dose: 40.0 mg/kg/injection, vehicle: saline.
The mark [9] stands for this setting: dose: 10.0 mg/kg/injection, vehicle: saline.
Where [10] appears, read: dose: 62.5 mg/kg/injection, vehicle: saline.
Where [11] appears, read: dose: 125.0 mg/kg/injection, vehicle: saline.
[12] abbreviates: dose: 250.0 mg/kg/injection, vehicle: saline.
The mark [13] stands for this setting: dose: 500.0 mg/kg/injection, vehicle: saline.
Setting [14] is: dose: 2.0 mg/kg/injection, vehicle: saline.
The mark [15] stands for this setting: dose: 18.8 mg/kg/injection, vehicle: saline.
Setting [16] is: dose: 37.5 mg/kg/injection, vehicle: saline.
The mark [17] stands for this setting: dose: 75.0 mg/kg/injection, vehicle: saline.
[18] abbreviates: dose: 150.0 mg/kg/injection, vehicle: saline.
[19] abbreviates: dose: 5.0 mg/kg/injection, vehicle: saline.
Where [20] appears, read: dose: 3.13 mg/kg/injection, vehicle: saline.
Where [21] appears, read: dose: 6.25 mg/kg/injection, vehicle: saline.
[22] abbreviates: dose: 12.5 mg/kg/injection, vehicle: saline.
Setting [23] is: dose: 31.3 mg/kg/injection, vehicle: saline.

These results are taken from PubChem BioAssay AID240 (DTP/NCI, 2004).

“And” between values parts separate entries of the source, which are not always exact repeats. Identical values can stand only once. Toxic doses and inconclusive results are not listed. Starred links: 1 amine or outer side, 2 acyl side, 3 side chain; linkers in the order of their positions; H or OH if unused. Positions of bridges follow the written chain, without caps; N, C: chain ends. Non-standard residues stand in square brackets, D forms with d. Residues, ends and D or L forms follow the SMILES beside them. Chains are numbered I, II in the order given. Actinocin(9to1) = Cc1c2oc3c(C)ccc(C(=O)[*:1])c3nc-2c(C(=O)[*:2])c(N)c1=O; aThr = C[C@H](O)[C@H](N)C(=O)O; NMeV = CN[C@H](C(=O)O)C(C)C; Sar = CNCC(=O)O

With `CN(C)/N=N/c1nc[nH]c1C(N)=O`, the T/C was 114 % of control under setting [1], 114 % of control under setting [2] and 114 % of control under setting [3].

Consider `CN1CC[C@]23c4c5ccc(O)c4O[C@H]2C(=O)CC[C@H]3[C@H]1C5`, for which the T/C was 96 % of control under setting [4]; 100 % of control and 103 % of control under setting [5]; 96 % of control and 100 % of control under setting [6]; 96 % of control and 100 % of control (dose: 32.0 mg/kg/injection, vehicle: saline).

In the case of `OCC1OC(n2cnc3c(=S)nc[nH]c32)C(O)C1O` (configuration not stated), the T/C under setting [7] was 96 % of control and 105 % of control; the T/C under setting [8] is 106 % of control and 111 % of control; the T/C (dose: 80.0 mg/kg/injection, vehicle: saline) was 100 % of control and 109 % of control; the T/C (dose: 160.0 mg/kg/injection, vehicle: saline) was 100 % of control and 105 % of control.

In the case of `Nc1nc2n[nH]nc2c(=O)[nH]1`, the T/C reads like this: (dose: 25.0 mg/kg/injection, vehicle: alkali diluted with saline) 106 % of control; (dose: 50.0 mg/kg/injection, vehicle: alkali diluted with saline) 120 % of control; (dose: 200.0 mg/kg/injection, vehicle: alkali diluted with saline) 90 % of control.

Regarding `O=c1[nH]c(=O)n(C2CC(O)C(CO)O2)cc1F` (configuration not stated), the T/C under setting [9] was 103 % of control; the T/C under setting [7] is 116 % of control and 123 % of control; the T/C under setting [8] was 119 % of control.

On to `CN(C)c1ccc(/C=C/c2ccnc3ccccc23)cc1`, for which the T/C under setting [4] is 93 % of control and 103 % of control; the T/C under setting [5] was 96 % of control and 100 % of control; the T/C under setting [6] was 93 % of control and 100 % of control.

For the compound `O=c1cn[nH]c(=O)[nH]1`, the T/C under setting [10] was 93 % of control and 108 % of control; the T/C under setting [11] was 103 % of control and 105 % of control; the T/C under setting [12] is 97 % of control and 106 % of control; the T/C under setting [13] was 102 % of control and 103 % of control.

Consider `Nc1nc(F)nc2c1ncn2C1OC(CO)C(O)C1O` (configuration not stated), for which the T/C is 100 % of control (dose: 0.25 mg/kg/injection, vehicle: saline); 107 % of control and 114 % of control (dose: 0.5 mg/kg/injection, vehicle: saline); 92 % of control and 103 % of control (dose: 1.0 mg/kg/injection, vehicle: saline); 107 % of control under setting [14]; 96 % of control under setting [4].

As for `Nc1nc(N)c2nc(CNc3ccc(C(=O)NC(CCC(=O)O)C(=O)O)cc3)cnc2n1` (configuration not stated), the T/C by setting is: (dose: 0.05 mg/kg/injection, vehicle: other) 96 % of control and 110 % of control; (dose: 0.1 mg/kg/injection, vehicle: other) 110 % of control and 114 % of control; (dose: 0.2 mg/kg/injection, vehicle: other) 116 % of control and 117 % of control.

For the compound `CS(=O)(=O)OCCCl`, the T/C (dose: 9.4 mg/kg/injection, vehicle: saline) was 100 % of control; the T/C under setting [15] was 100 % of control and 103 % of control; the T/C under setting [16] is 100 % of control and 106 % of control; the T/C under setting [17] was 96 % of control and 103 % of control.

In the case of `CO[C@@H]1[C@@H](OC2OC(C)C(OC3CC(C)(O)C(OC(=O)CC(C)C)C(C)O3)C(N(C)C)C2O)[C@@H](CC=O)C[C@@H](C)C(=O)/C=C/C2O[C@H]2C[C@@H](C)OC(=O)C[C@H]1OC(C)=O` (some centres not stated), the T/C under setting [16] was 100 % of control and 107 % of control; the T/C under setting [17] is 100 % of control and 111 % of control; the T/C under setting [18] is 100 % of control and 118 % of control; the T/C (dose: 300.0 mg/kg/injection, vehicle: saline) was 100 % of control and 111 % of control.

Regarding `N=C(N)SCc1c2ccccc2c(CSC(=N)N)c2ccccc12`, the T/C is, setting by setting: under setting [19], 170 % of control; under setting [9], 211 % of control; under setting [7], 303 % of control; under setting [8], 96 % of control.

As to `C[C@H]1C(=O)O[C@@H]2CCN3CC=C(COC(=O)[C@](C)(O)[C@@]1(C)O)[C@H]23`, the T/C was 94 % of control and 100 % of control under setting [20]; 93 % of control and 94 % of control under setting [21]; 94 % of control and 103 % of control under setting [22]; 91 % of control and 103 % of control under setting [1].

For the compound `Cc1c2oc3c(C)ccc(C(=O)N[C@@H]4C(=O)N[C@H](C(C)C)C(=O)N5CCC[C@H]5C(=O)N(C)CC(=O)N(C)[C@@H](C(C)C)C(=O)O[C@H]4C)c3nc-2c(C(=O)N[C@@H]2C(=O)N[C@H](C(C)C)C(=O)N3CCC[C@H]3C(=O)N(C)CC(=O)N(C)[C@@H](C(C)C)C(=O)O[C@H]2C)c(N)c1=O` (I: [aThr][dV]P[Sar][NMeV] / II: [aThr][dV]P[Sar][NMeV]; ester I:1-I:C, II:1-II:C; linker I:N-II:N via Actinocin(9to1)), the T/C (dose: 12.5 micrograms/kg/injection, vehicle: other) is 114 % of control and 123 % of control; the T/C (dose: 25.0 micrograms/kg/injection, vehicle: other) is 123 % of control; the T/C (dose: 50.0 micrograms/kg/injection, vehicle: other) was 150 % of control and 179 % of control; the T/C (dose: 100.0 micrograms/kg/injection, vehicle: other) was 194 % of control.

`O=c1[nH]cc(F)c(=O)[nH]1`: the T/C is 161 % of control under setting [19]; 179 % of control and 180 % of control under setting [9]; 193 % of control and 246 % of control under setting [7].

As to `CN(C)c1nc(N(C)C)nc(N(C)C)n1`, the T/C is 96 % of control and 100 % of control under setting [15]; 100 % of control under setting [16]; 100 % of control under setting [17]; 100 % of control and 103 % of control under setting [18].

For the compound `O=CCC(O)C(O)C(O)CO` (configuration not stated), the T/C was 100 % of control under setting [10]; 100 % of control and 103 % of control under setting [11]; 103 % of control and 107 % of control under setting [12]; 100 % of control and 110 % of control under setting [13].

For the compound `O=C(O)CCCc1ccc(N(CCCl)CCCl)cc1`, the T/C was 100 % of control and 105 % of control under setting [20]; 100 % of control and 123 % of control under setting [21]; 114 % of control under setting [22].

With `O=C(O)c1[nH]c(=O)[nH]c(=O)c1F`, the T/C by setting is: (dose: 1.25 mg/kg/injection, vehicle: saline) 120 % of control; under setting [19], 163 % of control and 175 % of control; under setting [9], 96 % of control.

For the compound `Clc1ncnc2nc[nH]c12`, the T/C was 100 % of control and 102 % of control (dose: 7.5 mg/kg/injection, vehicle: saline); 90 % of control and 94 % of control (dose: 15.0 mg/kg/injection, vehicle: saline); 90 % of control and 105 % of control (dose: 30.0 mg/kg/injection, vehicle: saline); 96 % of control and 100 % of control (dose: 60.0 mg/kg/injection, vehicle: saline).

With `CS(=O)(=O)OCCC(=O)N1CCN(C(=O)CCOS(C)(=O)=O)CC1`, the T/C is, setting by setting: (dose: 100.0 mg/kg/injection, vehicle: saline) 237 % of control; under setting [3], 303 % of control.

With `CC(CCC(C)OS(C)(=O)=O)OS(C)(=O)=O` (configuration not stated), the T/C is 103 % of control under setting [14]; 103 % of control and 107 % of control under setting [4]; 96 % of control and 100 % of control under setting [5]; 107 % of control and 113 % of control under setting [6].

Regarding `CCCSc1ncnc2nc[nH]c12`, the T/C is 93 % of control and 96 % of control under setting [23]; 93 % of control and 96 % of control under setting [11].

In the case of `COc1ccc2c(c1OC)C(=O)O[C@@H]2[C@H]1c2c(cc3c(c2OC)OCO3)CCN1C`, the T/C (dose: 15.6 mg/kg/injection, vehicle: saline) is 107 % of control; the T/C under setting [23] was 106 % of control and 107 % of control; the T/C under setting [10] was 96 % of control and 107 % of control; the T/C under setting [11] was 93 % of control and 96 % of control; the T/C under setting [12] was 93 % of control.

As for `OC(CBr)C(O)C(O)C(O)CBr` (configuration not stated), the T/C by setting is: under setting [1], 115 % of control; under setting [2], 115 % of control; under setting [3], 115 % of control.

For the compound `CC(=O)N(C)C`, the T/C reads like this: under setting [10], 87 % of control; under setting [12], 88 % of control; under setting [13], 100 % of control.
